Laboratory results published in patent US20250129070A1, “BIFUNCTIONAL ANDROGEN RECEPTOR COMPOUNDS” (priority 2023, published 2025).

How the values were obtained:
[1] = system: AR / CBP ternary complex; test: Ternary complex formation assay (sandwich ELISA, AR capture / CBP detection) in VCaP cell lysates; type: cell-based; details: 1.5 hours treatment, sandwich ELISA (AR capture, CBP or p300 detection)
Procedure, shortened: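 VCaP cells (50K/well, 5% charcoal-stripped FBS, ≥3 days) treated with bifunctional compound for 1.5 h, then lysed 30 min at 4 °C. AR captured on anti-AR (AR 441) plates; bound CBP or p300 detected by rabbit mAb plus HRP secondary. QuantaRed chemifluorescence read at ex 570/em 585, immediately and at 5 and 15 min.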

[2] = system: VCaP cells; test: VCaP growth inhibition assay; type: cell-based; details: 30 pM R1881, 9 days, CTG
Procedure, shortened: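 VCaP cells in phenol red-free DMEM/5% CSS, pre-incubated 72 h, then stimulated with R1881 (final 30 pM) and treated with 1:5 serial dilutions (final 100 nM to 10 fM) for 9 days at 37 °C. Viability by CellTiter-Glo luminescence; IC50 from 4-parameter logistic fit of RLU vs concentration.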

EC50 [1] [nM]	IC50 [2] [nM]	SMILES
< 1	0.1 to 1	CC(=O)N1CCc2c(c(N3CCCc4cc(-c5cnn(C)c5)c(C)cc43)nn2C2CCN(CC3CCN(c4ncc(C(=O)NC5C(C)(C)C(Oc6ccc(C#N)c(Cl)c6)C5(C)C)cn4)CC3(C)C)CC2)C1 (stereo not drawn) [Compound 446, 2-[4-[[4-[5-acetyl-3-[7-methyl-6-(1-methylpyrazol-4-yl)-3,4-dihydro-2H-quinolin-1-yl]-6,7-dihydro-4H-pyrazolo[4,3-c]pyridin-1-yl]-1-piperidyl]methyl]-3,3-dimethyl-1-piperidyl]-N-[3-(3-chloro-4-cyano-phenoxy)-2,2,4,4-tetramethyl-cyclobutyl]pyrimidine-5-carboxamide]
1 to 10	1 to 100	COc1cc(OC2C(C)(C)C(NC(=O)c3ccc(N4CCC[C@H](N5CCC(n6nc(N7CCCc8cc(-c9cnn(C)c9)c(C(F)F)cc87)c7c6CCN(C(C)=O)C7)CC5)C4)cc3)C2(C)C)ccc1C#N (stereo partly drawn) [Compound 399, 4-[(3S)-3-[4-[5-acetyl-3-[7-(difluoromethyl)-6-(1-methylpyrazol-4-yl)-3,4-dihydro-2H-quinolin-1-yl]-6,7-dihydro-4H-pyrazolo[4,3-c]pyridin-1-yl]-1-piperidyl]-1-piperidyl]-N-[3-(4-cyano-3-methoxy-phenoxy)-2,2,4,4-tetramethyl-cyclobutyl]benzamide]
< 1	0.1 to 1	CC(=O)N1CCc2c(c(N3CCCc4cc(-c5cnn(C)c5)c(C(F)F)cc43)nn2C2CCC(OC3CCN(c4ncc(C(=O)NC5C(C)(C)C(Oc6ccc(C#N)c(Cl)c6)C5(C)C)cn4)CC3)CC2)C1 (stereo not drawn) [Compound 338, 2-[4-[4-[5-acetyl-3-[7-(difluoromethyl)-6-(1-methylpyrazol-4-yl)-3,4-dihydro-2H-quinolin-1-yl]-6,7-dihydro-4H-pyrazolo[4,3-c]pyridin-1-yl]cyclohexoxy]-1-piperidyl]-N-[3-(3-chloro-4-cyano-phenoxy)-2,2,4,4-tetramethyl-cyclobutyl]pyrimidine-5-carboxamide]
> 100	≤ 0.1	CC(=O)N1CCc2c(c(N3CCCc4cc(-c5cnn(C)c5)c(C(F)F)cc43)nn2C2CCN(C3CN(c4ncc(C(=O)NC5C(C)(C)C(Oc6ccc(C#N)c(Cl)c6)C5(C)C)cn4)C3)CC2)C1 (stereo not drawn) [Compound 333, 2-[3-[4-[5-acetyl-3-[7-(difluoromethyl)-6-(1-methylpyrazol-4-yl)-3,4-dihydro-2H-quinolin-1-yl]-6,7-dihydro-4H-pyrazolo[4,3-c]pyridin-1-yl]-1-piperidyl]azetidin-1-yl]-N-[3-(3-chloro-4-cyano-phenoxy)-2,2,4,4-tetramethyl-cyclobutyl]pyrimidine-5-carboxamide]
< 1	0.1 to 1	COc1cc(OC2C(C)(C)C(NC(=O)c3ccc(N4CCC(CCc5ccc(-c6cc7cccc(-c8nn(C9CCOCC9)c9c8CN(C(C)=O)CC9)c7cn6)cn5)CC4)cc3)C2(C)C)ccc1C#N (stereo not drawn) [Compound 245, 4-[4-[2-[5-[8-(5-acetyl-1-tetrahydropyran-4-yl-6,7-dihydro-4H-pyrazolo[4,3-c]pyridin-3-yl)-3-isoquinolyl]-2-pyridyl]ethyl]-1-piperidyl]-N-[3-(4-cyano-3-methoxy-phenoxy)-2,2,4,4-tetramethyl-cyclobutyl]benzamide]
< 1	0.1 to 1	CC(=O)N1CCc2c(c(N3CCCc4cc(C#N)c(C(F)F)cc43)nn2C2CCN(CC3C(C)CN(c4ncc(C(=O)NC5C(C)(C)C(Oc6ccc(C#N)c(Cl)c6)C5(C)C)cn4)CC3C)CC2)C1 (stereo not drawn) [Compound 458, 2-[4-[[4-[5-acetyl-3-[6-cyano-7-(difluoromethyl)-3,4-dihydro-2H-quinolin-1-yl]-6,7-dihydro-4H-pyrazolo[4,3-c]pyridin-1-yl]-1-piperidyl]methyl]-3,5-dimethyl-1-piperidyl]-N-[3-(3-chloro-4-cyano-phenoxy)-2,2,4,4-tetramethyl-cyclobutyl]pyrimidine-5-carboxamide]
1 to 10	1 to 100	COc1cc(OC2C(C)(C)C(NC(=O)c3ccc(N4CC5(CCC(C6CCC(n7nc(N8CCCc9cc(-c%10cnn(C)c%10)c(C(F)F)cc98)c8c7CCN(C(C)=O)C8)CC6)CC5)C4)cc3)C2(C)C)ccc1C#N (stereo not drawn) [Compound 380, 4-[7-[4-[5-acetyl-3-[7-(difluoromethyl)-6-(1-methylpyrazol-4-yl)-3,4-dihydro-2H-quinolin-1-yl]-6,7-dihydro-4Hpyrazolo[4,3-c]pyridin-1-yl]cyclohexyl]-2-azaspiro[3.5]nonan-2-yl]-N-[3-(4-cyano-3-methoxy-phenoxy)-2,2,4,4-tetramethyl-cyclobutyl]benzamide]

The remaining lines, values behind:

SMILES	EC50 [1] [nM]	IC50 [2] [nM]
CN1C(=O)CCc2cc(N3CCCc4cc(-c5ccc(CCC6CCN(c7ncc(C(=O)NC8C(C)(C)C(Oc9ccc(C#N)c(Cl)c9)C8(C)C)cn7)CC6)nc5)ncc43)ccc21 (stereo not drawn) [Compound 240, N-[3-(3-chloro-4-cyano-phenoxy)-2,2,4,4-tetramethyl-cyclobutyl]-2-[4-[2-[5-[1-(1-methyl-2-oxo-3,4-dihydroquinolin-6-yl)-3,4-dihydro-2H-1,7-naphthyridin-6-yl]-2-pyridyl]ethyl]-1-piperidyl]pyrimidine-5-carboxamide]	1 to 10	1 to 100
CC(=O)N1CCc2c(c(N3CCCc4cc(-c5cnn(C)c5)c(Cl)cc43)nn2C2CCN(CC3CCN(c4ncc(C(=O)NC5C(C)(C)C(Oc6ccc(C#N)c(Cl)c6)C5(C)C)cn4)CC3)CC2)C1 (stereo not drawn) [Compound 25, 2-[4-[[4-[5-acetyl-3-[7-chloro-6-(1-methylpyrazol-4-yl)-3,4-dihydro-2H-quinolin-1-yl]-6,7-dihydro-4H-pyrazolo[4,3-c]pyridin-1-yl]-1-piperidyl]methyl]-1-piperidyl]-N-[3-(3-chloro-4-cyano-phenoxy)-2,2,4,4-tetramethyl-cyclobutyl]pyrimidine-5-carboxamide]	1 to 10	0.1 to 1
CC(=O)N1CCc2c(c(N3CCCc4cc(-c5cnn(C)c5)c(C(F)F)cc43)nn2C2CCN(Cc3cn(CCc4ncc(C(=O)NC5C(C)(C)C(Oc6ccc(C#N)c(Cl)c6)C5(C)C)cn4)nn3)CC2)C1 (stereo not drawn) [Compound 15, 2-[2-[4-[[4-[5-acetyl-3-[7-(difluoromethyl)-6-(1-methylpyrazol-4-yl)-3,4-dihydro-2H-quinolin-1-yl]-6,7-dihydro-4H-pyrazolo[4,3-c]pyridin-1-yl]-1-piperidyl]methyl]triazol-1-yl]ethyl]-N-[3-(3-chloro-4-cyano-phenoxy)-2,2,4,4-tetramethyl-cyclobutyl]pyrimidine-5-carboxamide]	10 to 100	> 100
CC(=O)N1CCc2c(c(N3CCCc4cc(-c5cnn(C)c5)c(C(F)F)cc43)nn2C2CCN(C(=O)C3CCN(c4ccc5c(n4)CN(C4C(C)(C)C(Oc6ccc(C#N)c(Cl)c6)C4(C)C)C5=O)CC3)CC2)C1 (stereo not drawn) [Compound 299, 4-[3-[2-[4-[4-[5-acetyl-3-[7-(difluoromethyl)-6-(1-methylpyrazol-4-yl)-3,4-dihydro-2H-quinolin-1-yl]-6,7-dihydro-4H-pyrazolo[4,3-c]pyridin-1-yl]piperidine-1-carbonyl]-1-piperidyl]-5-oxo-7H-pyrrolo[3,4-b]pyridin-6-yl]-2,2,4,4-tetramethyl-cyclobutoxy]-2-chloro-benzonitrile]	< 1	0.1 to 1
CC(=O)N1CCc2c(c(N3CCCc4cc(-c5cnn(C)c5)c(C(F)F)cc43)nn2C2CCN(Cc3cn(Cc4ncc(C(=O)NC5C(C)(C)C(Oc6ccc(C#N)c(Cl)c6)C5(C)C)cn4)nn3)CC2)C1 (stereo not drawn) [Compound 188, 2-[[4-[[4-[5-acetyl-3-[7-(difluoromethyl)-6-(1-methylpyrazol-4-yl)-3,4-dihydro-2H-quinolin-1-yl]-6,7-dihydro-4H-pyrazolo[4,3-c]pyridin-1-yl]-1-piperidyl]methyl]triazol-1-yl]methyl]-N-[3-(3-chloro-4-cyano-phenoxy)-2,2,4,4-tetramethyl-cyclobutyl]pyrimidine-5-carboxamide]	< 1	≤ 0.1
CC(=O)N1CCc2c(c(N3CCCc4cc(-c5cnn(C)c5)c(C(F)F)cc43)nn2CCCOC2CCN(c3ncc(C(=O)NC4C(C)(C)C(Oc5ccc(C#N)c(Cl)c5)C4(C)C)cn3)CC2)C1 (stereo not drawn) [Compound 9, 2-[4-[3-[5-acetyl-3-[7-(difluoromethyl)-6-(1-methylpyrazol-4-yl)-3,4-dihydro-2H-quinolin-1-yl]-6,7-dihydro-4H-pyrazolo[4,3-c]pyridin-1-yl]propoxy]-1-piperidyl]-N-[3-(3-chloro-4-cyano-phenoxy)-2,2,4,4-tetramethyl-cyclobutyl]pyrimidine-5-carboxamide]	< 1	0.1 to 1
Cn1c(=O)sc2ccc(N3CCCc4cc(-c5ccc(CCC6CCN(c7ncc(C(=O)NC8C(C)(C)C(Oc9ccc(C#N)c(Cl)c9)C8(C)C)cn7)CC6)nc5)ncc43)cc21 (stereo not drawn) [Compound 237, N-[3-(3-chloro-4-cyano-phenoxy)-2,2,4,4-tetramethyl-cyclobutyl]-2-[4-[2-[5-[1-(3-methyl-2-oxo-1,3-benzothiazol-5-yl)-3,4-dihydro-2H-1,7-naphthyridin-6-yl]-2-pyridyl]ethyl]-1-piperidyl]pyrimidine-5-carboxamide]	< 1	1 to 100
Cn1cc(-c2cc3cccc(-c4cc(C5=CCN(CC6CCN(c7ncc(C(=O)NC8C(C)(C)C(Oc9ccc(C#N)c(Cl)c9)C8(C)C)cn7)CC6)CC5)c5c(c4)n(C)c(=O)n5C)c3cn2)cn1 (stereo not drawn) [Compound 243, N-[3-(3-chloro-4-cyano-phenoxy)-2,2,4,4-tetramethyl-cyclobutyl]-2-[4-[[4-[1,3-dimethyl-6-[3-(1-methylpyrazol-4-yl)-8-isoquinolyl]-2-oxo-benzimidazol-4-yl]-3,6-dihydro-2H-pyridin-1-yl]methyl]-1-piperidyl]pyrimidine-5-carboxamide]	> 100	0.1 to 1
